Test results reported in patent US20230271950A1, “ANTIBACTERIAL PICOLINAMIDE COMPOUNDS” (University of Notre Dame Du Lac, priority 2020, published 2023).
In brackets after ≈: the same amount, converted by molar mass. Like-named read-outs stand apart in the source and are kept apart here.

Key:
[1] = tested on: Bacteroides fragilis; experiment: MIC against gut bacterium Bacteroides fragilis; format: cell-based; conditions: Bacteroides fragilis strain HM-709
[2] = tested on: MRSA (NRS70, NRS119); experiment: MIC against MRSA strains; format: cell-based, Staphylococcus aureus
[3] = tested on: Corynebacterium spp.; experiment: MIC against gut bacterium Corynebacterium spp.; format: cell-based; conditions: Corynebacterium spp. strain HM-784; Table 1
[4] = tested on: Veillonella sp. HM-49; experiment: MIC against gut bacterium Veillonella sp.; format: cell-based
[5] = tested on: S. aureus ATCC29213; experiment: MIC against MSSA; format: cell-based, Staphylococcus aureus; conditions: Staphylococcus aureus; S. aureus ATCC29213; Table 1; read-out: MIC
[6] = tested on: Lactobacillus reuteri; experiment: MIC against gut bacterium Lactobacillus reuteri; format: cell-based
[7] = tested on: Fusobacterium nucleatum; experiment: MIC against gut bacterium Fusobacterium nucleatum; format: cell-based; conditions: Fusobacterium nucleatum strain HM-992
[8] = tested on: Lactobacillus gasseri; experiment: MIC against gut bacterium Lactobacillus gasseri; format: cell-based
[9] = tested on: C. difficile; experiment: MIC by broth microdilution against C. difficile strains; format: cell-based, Clostridioides difficile; conditions: Clostridioides difficile; for MIC: read-out: MIC
[10] = tested on: Eubacterium sp.; experiment: MIC against gut bacterium Eubacterium sp.; format: cell-based; conditions: Eubacterium sp. strain HM-178
[11] = tested on: Bifidobacterium longum; experiment: MIC against gut bacterium Bifidobacterium longum; format: cell-based; conditions: Bifidobacterium longum strain HM-846

CN[C@H](CC(C)C)C(=O)N[C@H]1C(=O)N[C@@H](CC(N)=O)C(=O)N[C@H]2C(=O)N[C@H]3C(=O)N[C@H](C(=O)N[C@H](C(=O)O)c4cc(O)cc(O)c4-c4cc3ccc4O)[C@H](O)c3ccc(c(Cl)c3)Oc3cc2cc(c3O[C@@H]2O[C@H](CO)[C@@H](O)[C@H](O)[C@H]2O[C@H]2C[C@](C)(N)[C@H](O)[C@H](C)O2)Oc2ccc(cc2Cl)[C@H]1O [VAN, vancomycin, reference compound]
MIC ([1]; Table 1, read-out: MIC): 16 µg/mL (≈ 11 µM)
MIC ([1]; Table 7): 16 µg/mL (≈ 11 µM)
MIC ([2]; MRSA NRS70, Table 7): 2 µg/mL (≈ 1.38 µM)
MIC ([2]; MRSA NRS119, Table 1): 2 µg/mL (≈ 1.38 µM)
MIC ([2]; Staphylococcus aureus, MRSA NRS70, Table 1, read-out: MIC): 2 µg/mL (≈ 1.38 µM)
MIC [3]: 0.25 µg/mL (≈ 0.173 µM)
MIC ([4]; SP.HM49, Veillonella sp. HM-49, Table 1, read-out: MIC): > 32 µg/mL
MIC ([4]; Veillonella sp. strain HM-49, Table 7): >32 µg/mL
MIC [5]: 1 µg/mL (≈ 0.69 µM)
MIC ([6]; Lactobacillus reuteri strain HM-102, Table 7): >32 mg/L
MIC ([6]; Limosilactobacillus reuteri, Lactobacillus reuter strain HM-102, Table 1, read-out: MIC): > 32 mg/L
MIC ([7]; Table 1, read-out: MIC): 0.25 µg/mL (≈ 0.173 µM)
MIC ([7]; Table 7): 0.25 µg/mL (≈ 0.173 µM)
MIC ([8]; Lactobacillus gasseri strain HM-644, Table 7): 1 mg/L (≈ 0.69 µM)
MIC ([8]; Lactobacillus gasseri, Lactobacillus gasser strain HM-644, Table 1, read-out: MIC): 1 mg/L (≈ 0.69 µM)
MIC ([9]; ATCC43598, C. difficile ATCC43598, Table 7): 1 µg/mL (≈ 0.69 µM)
MIC ([9]; ATCC43598, C. difficile ATCC43598, Table 9): 1 µg/mL (≈ 0.69 µM)
MIC ([9]; BAA1801, C. difficile BAA-1801, Table 7): 0.25 µg/mL (≈ 0.173 µM)
MIC ([9]; BAA1801, C. difficile BAA-1801, Table 9): 0.25 µg/mL (≈ 0.173 µM)
MIC ([9]; BAA1803, C. difficile BAA-1803, Table 7): 2 µg/mL (≈ 1.38 µM)
MIC ([9]; BAA1803, C. difficile BAA-1803, Table 9): 2 µg/mL (≈ 1.38 µM)
MIC ([9]; BAA1804, C. difficile BAA-1804, Table 7): 1 µg/mL (≈ 0.69 µM)
MIC ([9]; BAA1804, C. difficile BAA-1804, Table 9): 1 µg/mL (≈ 0.69 µM)
MIC ([9]; BAA1870, C. difficile BAA-1870 (NAP1, ribotype 27), Table 1): 2 µg/mL (≈ 1.38 µM)
MIC ([9]; BAA1870, C. difficile BAA-1870, Table 7): 2 µg/mL (≈ 1.38 µM)
MIC ([9]; BAA1870, C. difficile BAA-1870, Table 9): 2 µg/mL (≈ 1.38 µM)
MIC ([9]; C. difficile 23691 (VR, vancomycin-resistant), Table 7): 4 µg/mL (≈ 2.76 µM)
MIC ([9]; C. difficile 23691, clinical isolate resistant to VAN, Table 1): 4 µg/mL (≈ 2.76 µM)
MIC ([9]; C. difficile 23691, Table 9): 4 µg/mL (≈ 2.76 µM)
MIC ([9]; C. difficile 23828 (FR, fidaxomicin-resistant), Table 7): 2 µg/mL (≈ 1.38 µM)
MIC ([9]; C. difficile 23828, clinical isolate resistant to FDX, Table 1): 2 µg/mL (≈ 1.38 µM)
MIC ([9]; C. difficile 23828, Table 9): 2 µg/mL (≈ 1.38 µM)
MIC ([9]; C. difficile 24531 (VR, vancomycin-resistant), Table 7): 4 µg/mL (≈ 2.76 µM)
MIC ([9]; C. difficile 24531, Table 9): 4 µg/mL (≈ 2.76 µM)
MIC ([9]; C. difficile 24923 (VR, vancomycin-resistant), Table 7): 8 µg/mL (≈ 5.52 µM)
MIC ([9]; C. difficile 24923, Table 9): 8 µg/mL (≈ 5.52 µM)
MIC ([9]; C. difficile 26675 (MR, metronidazole-resistant), Table 7): 1 µg/mL (≈ 0.69 µM)
MIC ([9]; C. difficile 26675, clinical isolate resistant to MTZ, Table 1): 1 µg/mL (≈ 0.69 µM)
MIC ([9]; C. difficile 26675, Table 9): 1 µg/mL (≈ 0.69 µM)
MIC ([9]; C. difficile 27081 (FR, fidaxomicin-resistant), Table 7): 1 µg/mL (≈ 0.69 µM)
MIC ([9]; C. difficile 27081, Table 9): 1 µg/mL (≈ 0.69 µM)
MIC ([9]; C. difficile HM-89, Table 9): 0.25 µg/mL (≈ 0.173 µM)
MIC ([9]; C. difficile NR49292, Table 7): 0.25 µg/mL (≈ 0.173 µM)
MIC ([9]; C. difficile NR49292, Table 9): 0.25 µg/mL (≈ 0.173 µM)
MIC ([9]; C. difficile NR49294, Table 7): 0.25 µg/mL (≈ 0.173 µM)
MIC ([9]; C. difficile NR49294, Table 9): 0.25 µg/mL (≈ 0.173 µM)
MIC ([9]; C. difficile NR49318, Table 7): 0.25 µg/mL (≈ 0.173 µM)
MIC ([9]; C. difficile NR49318, Table 9): 0.25 µg/mL (≈ 0.173 µM)
MIC ([9]; C. difficile NR-13427, Table 9): 1 µg/mL (≈ 0.69 µM)
MIC ([9]; C. difficile NR-13428, Table 9): 2 µg/mL (≈ 1.38 µM)
MIC ([9]; C. difficile NR-13431, Table 9): 0.25 µg/mL (≈ 0.173 µM)
MIC ([9]; C. difficile NR-13433, Table 9): 1 µg/mL (≈ 0.69 µM)
MIC ([9]; C. difficile NR-32885, Table 9): 1 µg/mL (≈ 0.69 µM)
MIC ([9]; C. difficile NR-32889, Table 9): 2 µg/mL (≈ 1.38 µM)
MIC ([9]; C. difficile NR-32890, Table 9): 2 µg/mL (≈ 1.38 µM)
MIC ([9]; C. difficile NR-32891, Table 9): 1 µg/mL (≈ 0.69 µM)
MIC ([9]; C. difficile NR-32895, Table 9): 2 µg/mL (≈ 1.38 µM)
MIC ([9]; C. difficile NR-32896, Table 9): 2 µg/mL (≈ 1.38 µM)
MIC ([9]; C. difficile NR-32897, Table 9): 0.25 µg/mL (≈ 0.173 µM)
MIC ([9]; C. difficile NR-32900, Table 9): 1 µg/mL (≈ 0.69 µM)
MIC ([9]; C. difficile NR-32904, Table 9): 0.25 µg/mL (≈ 0.173 µM)
MIC ([9]; C. difficile NR-49280, Table 9): 1 µg/mL (≈ 0.69 µM)
MIC ([9]; C. difficile NR-49285, Table 9): 0.25 µg/mL (≈ 0.173 µM)
MIC ([9]; C. difficile NR-49291, Table 9): 1 µg/mL (≈ 0.69 µM)
MIC ([9]; C. difficile NR-49298, Table 9): 1 µg/mL (≈ 0.69 µM)
MIC ([9]; C. difficile NR-49306, Table 9): 1 µg/mL (≈ 0.69 µM)
MIC ([9]; C. difficile NR-49307, Table 9): 1 µg/mL (≈ 0.69 µM)
MIC ([9]; C. difficile NR-49309, Table 9): 1 µg/mL (≈ 0.69 µM)
MIC ([9]; C. difficile NR-49320, Table 9): 1 µg/mL (≈ 0.69 µM)
MIC ([9]; C. difficile NR-49321, Table 9): 0.25 µg/mL (≈ 0.173 µM)
MIC ([9]; C. difficile NR-49328, Table 9): 0.25 µg/mL (≈ 0.173 µM)
MIC ([9]; C. difficile NR-49329, Table 9): 0.25 µg/mL (≈ 0.173 µM)
MIC90 ([9]; read-out: MIC90 (101 strains)): 2 µg/mL (≈ 1.38 µM)
MIC ([10]; Table 1, read-out: MIC): 2 µg/mL (≈ 1.38 µM)
MIC ([10]; Table 7): 2 µg/mL (≈ 1.38 µM)
MIC ([11]; Table 1, read-out: MIC): 0.25 µg/mL (≈ 0.173 µM)
MIC ([11]; Table 7): 0.25 µg/mL (≈ 0.173 µM)
